In US20050239717A1, “Higher fullerenes useful as radical scavengers” (Nano-C, Inc., priority 2003, published 2005):

Test: Radical scavenging efficiency test: cigarette smoke bubbled through coarse glass frit into decalin with scavenger, DHR 6G fluorescent probe
Conditions: 150 μM to 300 μM, FIG. 6B
Procedure: Tests were conducted to study the effectiveness of higher fullerenes against radicals present in cigarette smoke (predominantly peroxyl radical). The cigarette smoke was bubbled through a cylindrical, coarse glass frit into a solvent (decalin) in which radical scavengers were dissolved. The smoke then exited this solvent and was passed through a second flask, in which a fluorescent probe that fluoresces upon oxidation by radicals was used (Dihydrorhodamine 6G (DHR 6G), purchased from Molecular Probes). The variation of fluorescent signal corresponds directly to the radical content of the cigarette smoke, and thus a measure of the reduction of radicals by the radical scavenger is measured. Signals were measured every 10 seconds.
Tests were conducted to study the sensitivity of the test apparatus in Example 2 to varying concentrations of Vitamin E as a radical scavenger to scavenge radicals present in cigarette smoke (predominantly peroxyl radical). The cigarette smoke was bubbled through a cylindrical, coarse glass frit into a solvent (decalin) in which radical scavengers were dissolved. […] The variation of fluorescent signal corresponds directly to the radical content of the cigarette smoke, and thus a measure of the reduction of radicals by the radical scavenger is measured. Signals were measured every 10 seconds.

Vitamin E
Change of fluorescence signal on doubling the scavenger concentration: very small deflection
